Structures are written as SMILES. Counter-ions that a name gives are not always drawn.

The nature of this data set: Study of the solubility of apomorphine hydrochloride in various solvents.

Turning to `CN1CCc2cccc3c2[C@H]1Cc1ccc(O)c(O)c1-3` [apomorphine hydrochloride], for the setting “each used alone: water, 1,3-butanediol, polyethylene glycol, propylene glycol, glycerin, propylene carbonate”, the solubility is on record as ≤ 3 % by weight. In addition, the “apomorphine hydrochloride solution able to be prepared” value by setting is: (low molecular weight polyethylene glycol combined with propylene carbonate) 8 % by weight; (propylene glycol and propylene carbonate, weight of propylene glycol five times or more that of propylene carbonate) 10 % by weight. In addition, for the setting “propylene carbonate used alone”, the “solubility in propylene carbonate” value is 0.25 % by weight.

The values are drawn from patent US20230181570A1, “Transdermal Formulation Containing Apomorphine” (MEDRX CO., LTD., priority 2020, published 2023).
